Data from patent US9113629B2, “4-amino-6-(4-substituted-phenyl)-picolinates and 6-amino-2-(4-substituted-phenyl)-pyrimidine-4-carboxylates and their use as herbicides” (DOW AGROSCIENCES LLC, priority 2013, dated 2015).

Key:
Assay in all cases: Post-emergent Test III, herbicidal activity in wheat and barley
Type in all cases: in vivo
[1] = tested on: TRZSS: wheat, including spring and winter (Triticum aestivum); details: 21 days after application; for pest or weed control at 35 g/ha: 35 g ai/ha; for pest or weed control at 70 g/ha: 70 g ai/ha; for GR20 TRZSS: probit analysis, dose for 20 percent growth reduction (crop)
Outline: (§1)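 Plants at the second to third true-leaf stage, grown in a greenhouse at about 18/17 °C with a 14 h photoperiod, were sprayed post-emergence at 187 L/ha with the high rate and ½× to 1/16× serial dilutions in an acetone/DMSO/crop-oil/surfactant carrier. Injury was rated visually at 21 d on a 0–100% scale, and GR20–GR90 were derived by probit analysis.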

[2] = tested on: VIOSS: wild pansy (Viola tricolor), field violet (Viola arvensis); details: 21 days after application; for pest or weed control at 35 g/ha: 35 g ai/ha; for pest or weed control at 70 g/ha: 70 g ai/ha; for GR50 VIOSS / GR80 VIOSS: probit analysis; for GR50 VIOSS: dose for 50 percent growth reduction; for GR80 VIOSS: dose for 80 percent growth reduction
Outline: as §1

[3] = tested on: VERPE: bird's-eye speedwell (veronica persica); details: 21 days after application; for pest or weed control at 35 g/ha: 35 g ai/ha; for pest or weed control at 70 g/ha: 70 g ai/ha; for GR50 VERPE / GR80 VERPE: probit analysis; for GR50 VERPE: dose for 50 percent growth reduction; for GR80 VERPE: dose for 80 percent growth reduction
Outline: as §1

[4] = tested on: HORSS: barley, including spring and winter (Hordeum vulgare); details: 21 days after application; for pest or weed control at 35 g/ha: 35 g ai/ha; for pest or weed control at 70 g/ha: 70 g ai/ha; for GR20 HORSS: probit analysis, dose for 20 percent growth reduction (crop)
Outline: as §1

[5] = tested on: SASKR: Russian thistle (Salsola iberica); details: 21 days after application; for pest or weed control at 35 g/ha: 35 g ai/ha; for pest or weed control at 70 g/ha: 70 g ai/ha; for GR50 SASKR / GR80 SASKR: probit analysis; for GR50 SASKR: dose for 50 percent growth reduction; for GR80 SASKR: dose for 80 percent growth reduction
Outline: as §1

[6] = tested on: MATSS: scented mayweed (Matricaria chamomilla), pineappleweed (Matricaria matricarioides); details: 21 days after application; for pest or weed control at 35 g/ha: 35 g ai/ha; for pest or weed control at 70 g/ha: 70 g ai/ha; for GR50 MATSS / GR80 MATSS: probit analysis; for GR50 MATSS: dose for 50 percent growth reduction; for GR80 MATSS: dose for 80 percent growth reduction
Outline: as §1

[7] = tested on: KCHSC: kochia (Kochia scoparia); details: 21 days after application; for pest or weed control at 35 g/ha: 35 g ai/ha; for pest or weed control at 70 g/ha: 70 g ai/ha; for GR50 KCHSC / GR80 KCHSC: probit analysis; for GR50 KCHSC: dose for 50 percent growth reduction; for GR80 KCHSC: dose for 80 percent growth reduction
Outline: as §1

[8] = Triticum aestivum, post-emergence, 504 h, read-out: Visual Gorowth Reduction (%) 21 days After Application TRZSS
[9] = Viola tricolor, post-emergence, 504 h, read-out: Visual Gorowth Reduction (%) 21 days After Application VIOSS
[10] = Veronica persica, post-emergence, 504 h, read-out: Visual Gorowth Reduction (%) 21 days After Application VERPE
[11] = Hordeum vulgare, post-emergence, 504 h, read-out: Visual Gorowth Reduction (%) 21 days After Application HORSS
[12] = Salsola tragus, post-emergence, 504 h, read-out: Visual Gorowth Reduction (%) 21 days After Application SASKR
[13] = Matricaria chamomilla, post-emergence, 504 h, read-out: Visual Gorowth Reduction (%) 21 days After Application MATSS
[14] = Bassia scoparia, post-emergence, 504 h, read-out: Visual Gorowth Reduction (%) 21 days After Application KCHSC

Structure (SMILES)	pest or weed control at 35 g/ha [1, 8]	pest or weed control at 70 g/ha [1, 8]	GR20 TRZSS [1]	pest or weed control at 35 g/ha [2, 9]	pest or weed control at 70 g/ha [2, 9]	GR50 VIOSS [2]	GR80 VIOSS [2]	pest or weed control at 35 g/ha [3, 10]	pest or weed control at 70 g/ha [3, 10]	GR50 VERPE [3]	GR80 VERPE [3]	pest or weed control at 35 g/ha [4, 11]	pest or weed control at 70 g/ha [4, 11]	GR20 HORSS [4]	pest or weed control at 35 g/ha [5, 12]	pest or weed control at 70 g/ha [5, 12]	GR50 SASKR [5]	GR80 SASKR [5]	pest or weed control at 35 g/ha [6, 13]	pest or weed control at 70 g/ha [6, 13]	further results
Nc1c(F)c(-c2ccc(I)c(F)c2F)nc(C(=O)O)c1Cl [Compound 141, 4-amino-3-chloro-6-(2,3-difluoro-4-iodophenyl)-5-fluoropicolinic acid]	75 to 84%	85 to 94%	1 g ai/ha	95 to 100%	95 to 100%	7 g ai/ha	11 g ai/ha	75 to 84%	85 to 94%	14 g ai/ha	43 g ai/ha	85 to 94%	95 to 100%	1 g ai/ha	75 to 84%	85 to 94%	4 g ai/ha	40 g ai/ha	75 to 84%	95 to 100%	GR50 MATSS [6]: 15 g ai/ha; GR80 MATSS [6]: 33 g ai/ha; pest or weed control at 35 g/ha [7, 14]: 75 to 84%; pest or weed control at 70 g/ha [7, 14]: 85 to 94%; GR50 KCHSC [7]: 7 g ai/ha; GR80 KCHSC [7]: 28 g ai/ha
Nc1c(F)c(-c2ccc(Br)c(F)c2)nc(C(=O)O)c1Cl [Compound 21]	75 to 84%	85 to 94%	1 g ai/ha	95 to 100%	95 to 100%	4 g ai/ha	6 g ai/ha	30 to 44%	0 to 29%	130 g ai/ha	>140 g ai/ha	85 to 94%	95 to 100%	1 g ai/ha	75 to 84%	85 to 94%	1 g ai/ha	25 g ai/ha	85 to 94%	85 to 94%	GR50 MATSS [6]: 5 g ai/ha; GR80 MATSS [6]: 31 g ai/ha; pest or weed control at 35 g/ha [7, 14]: 95 to 100%; pest or weed control at 70 g/ha [7, 14]: 95 to 100%; GR50 KCHSC [7]: 1 g ai/ha; GR80 KCHSC [7]: 1 g ai/ha
COC(=O)c1nc(-c2ccc(I)c(F)c2)c(F)c(N)c1Cl [Compound 132]	60 to 74%	60 to 74%	10 g ai/ha	95 to 100%	95 to 100%	9 g ai/ha	17 g ai/ha	0 to 29%	75 to 84%	58 g ai/ha	99 g ai/ha	60 to 74%	75 to 84%	9 g ai/ha	75 to 84%	75 to 84%	1 g ai/ha	66 g ai/ha	0 to 29%	30 to 44%	pest or weed control at 140 g/ha ([1]; Triticum aestivum, post-emergence, 504 h, 140 g ai/ha, read-out: Visual Gorowth Reduction (%) 21 days After Application TRZSS): 75 to 84%; pest or weed control at 140 g/ha ([2]; Viola tricolor, post-emergence, 504 h, 140 g ai/ha, read-out: Visual Gorowth Reduction (%) 21 days After Application VIOSS): 95 to 100%; pest or weed control at 140 g/ha ([3]; Veronica persica, post-emergence, 504 h, 140 g ai/ha, read-out: Visual Gorowth Reduction (%) 21 days After Application VERPE): 85 to 94%; pest or weed control at 140 g/ha ([4]; Hordeum vulgare, post-emergence, 504 h, 140 g ai/ha, read-out: Visual Gorowth Reduction (%) 21 days After Application HORSS): 95 to 100%; pest or weed control at 140 g/ha ([5]; Salsola tragus, post-emergence, 504 h, 140 g ai/ha, read-out: Visual Gorowth Reduction (%) 21 days After Application SASKR): 75 to 84%; pest or weed control at 140 g/ha ([6]; Matricaria chamomilla, post-emergence, 504 h, 140 g ai/ha, read-out: Visual Gorowth Reduction (%) 21 days After Application MATSS): 30 to 44%; GR50 MATSS [6]: >140 g ai/ha; GR80 MATSS [6]: >140 g ai/ha; pest or weed control at 35 g/ha [7, 14]: 85 to 94%; pest or weed control at 70 g/ha [7, 14]: 85 to 94%; pest or weed control at 140 g/ha ([7]; Bassia scoparia, post-emergence, 504 h, 140 g ai/ha, read-out: Visual Gorowth Reduction (%) 21 days After Application KCHSC): 95 to 100%; GR50 KCHSC [7]: 4 g ai/ha; GR80 KCHSC [7]: 20 g ai/ha
Nc1c(F)c(-c2ccc(Br)cc2F)nc(C(=O)O)c1Cl [Compound 163]	75 to 84%	75 to 84%	1 g ai/ha	75 to 84%	95 to 100%	14 g ai/ha	29 g ai/ha	75 to 84%	95 to 100%	13 g ai/ha	30 g ai/ha	85 to 94%	95 to 100%	1 g ai/ha	75 to 84%	85 to 94%	3 g ai/ha	27 g ai/ha	75 to 84%	95 to 100%	GR50 MATSS [6]: 5 g ai/ha; GR80 MATSS [6]: 24 g ai/ha; pest or weed control at 35 g/ha [7, 14]: 75 to 84%; pest or weed control at 70 g/ha [7, 14]: 85 to 94%; GR50 KCHSC [7]: 8 g ai/ha; GR80 KCHSC [7]: 36 g ai/ha
COc1c(N)nc(-c2ccc(Br)c(F)c2F)nc1C(=O)O [Compound 8]	75 to 84%	85 to 94%	1 g ai/ha	85 to 94%	85 to 94%	13 g ai/ha	28 g ai/ha	95 to 100%	95 to 100%	1 g ai/ha	1 g ai/ha	60 to 74%	75 to 84%	1 g ai/ha	85 to 94%	85 to 94%	1 g ai/ha	16 g ai/ha	60 to 74%	75 to 84%	GR50 MATSS [6]: 26 g ai/ha; GR80 MATSS [6]: 73 g ai/ha; pest or weed control at 35 g/ha [7, 14]: 95 to 100%; pest or weed control at 70 g/ha [7, 14]: 95 to 100%; GR50 KCHSC [7]: 3 g ai/ha; GR80 KCHSC [7]: 6 g ai/ha
COC(=O)c1nc(-c2ccc(Br)c(F)c2F)nc(N)c1OC [Compound 122, methyl 6-amino-2-(4-bromo-2,3-difluorophenyl)-5-methoxypyrimidine-4-carboxylate]	75 to 84%	85 to 94%	1 g ai/ha	95 to 100%	95 to 100%	10 g ai/ha	21 g ai/ha	95 to 100%	95 to 100%	1 g ai/ha	2 g ai/ha	60 to 74%	85 to 94%	3 g ai/ha	95 to 100%	95 to 100%	<17.5 g ai/ha	<17.5 g ai/ha	0 to 29%	30 to 44%	GR50 MATSS [6]: >140 g ai/ha; GR80 MATSS [6]: >140 g ai/ha; pest or weed control at 35 g/ha [7, 14]: 85 to 94%; pest or weed control at 70 g/ha [7, 14]: 95 to 100%; GR50 KCHSC [7]: 5 g ai/ha; GR80 KCHSC [7]: 14 g ai/ha
